The subject of one data set is tumor. The following applies: Phase II, cytotoxic doses; cited from earlier work.
For data set [1], the system named is human epidermoid cells, virally infected with HSV-2. The following applies: cited from earlier work.
Data set [2] has the same test system.
The conditions of data set [3]: human, inhaled or intranasal.
Data set [4] relates to human epidermoid cells, virally infected with HSV-2. As to conditions: cited from earlier work. This is another data set of the same source.

On to `CC(=O)OC[C@]12CCC(C)=C[C@H]1O[C@@H]1[C@H](O)[C@@H](OC(C)=O)[C@@]2(C)[C@]12CO2` [Anguidine], for which, in the data set with tumor, the hematologic toxicity entry is “considerable hematologic toxicity” and the “overall tumor response rate” value was “low”.
Regarding `CC(=O)OC[C@]12CCC(C)=C[C@H]1O[C@@H]1[C@H](O)[C@@H](OC(C)=O)[C@@]2(C)[C@]12CO2` [DAS], the “concentrations that did not reduce cell viability” value in data set [1] was “up to 200 ng/ml”. In addition, in data set [2], the “Trichothecene in Vitro Concentration, Cytotoxic Min” value was 6 ng/mL and the “Trichothecene in Vitro Concentration, Toxic Lo” value is 201 ng/mL. Further, the “Trichothecene in Vitro Concentration, Cytotoxic Max” value in data set [2] (human) was determined as 200 ng/mL. Also, the “In Vivo Dose for Average 1200 Gram Lungs, Cytotoxic Max” value in data set [3] came to 240000 ng. In addition, in data set [4], the “Trichothecene in Vitro Concentration, Inhibitory 50%” value is 2.3 ng/mL; the “Trichothecene in Vitro Concentration, Inhibitory 80%” value is 4.0 ng/mL; the “Trichothecene in Vitro Concentration, Inhibitory 90%” value was 4.5 ng/mL; the “Trichothecene in Vitro Concentration, Inhibitory 99%” value was 5.0 ng/mL. Besides, the “inhibition of hyperactive protein synthesis” value in data set [4] was ~99%.

Source of the values: patent US7015244B1 (priority 1998, dated 2006).
